From PubChem BioAssay AID330 (DTP/NCI, 2004)
“And” between values parts separate entries of the source, which are not always exact repeats. Identical values can stand only once. Toxic doses and inconclusive results are not listed. The calls were made as follows: active = survival T/C of 150% or more; inactive = T/C below 125% in these data.

Test system: P388 leukemia ip, CD2F1 mice, survival T/C
Assay: NCI In Vivo Anticancer Drug Screen. Data for tumor model P388 Leukemia (intraperitoneal) in CD2F1 (CDF1) mice
Conditions: endpoint: median survival time, higher = longer survival
How it was run: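 Mice carrying the transplanted tumor received test compound or vehicle. Survival was recorded in each group, and the value is the treated-group measurement divided by that of the vehicle-treated control group.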

[1] = dose: 200.0 mg/kg/injection, schedule: Q01DX005 (ip), vehicle: saline with Tween-80
[2] = dose: 60.0 mg/kg/injection, schedule: Q01DX005 (ip), vehicle: Klucel (hydroxypropylcellulose) (HPC)
[3] = dose: 120.0 mg/kg/injection, schedule: Q01DX005 (ip), vehicle: Klucel (hydroxypropylcellulose) (HPC)
[4] = dose: 50.0 mg/kg/injection, schedule: Q01DX005 (ip), vehicle: Klucel (hydroxypropylcellulose) (HPC)
[5] = dose: 100.0 mg/kg/injection, schedule: Q01DX005 (ip), vehicle: Klucel (hydroxypropylcellulose) (HPC)
[6] = dose: 200.0 mg/kg/injection, schedule: Q01DX005 (ip), vehicle: Klucel (hydroxypropylcellulose) (HPC)

Measured: T/C

N#C/C(=N\NC(=O)c1cccc(C(=O)N/N=C(\C#N)c2ccccc2Cl)n1)c1ccccc1Cl
inactive: dose: 1.5 mg/kg/injection, schedule: Q01DX005 (ip), vehicle: saline with Tween-80 92 % of control | dose: 3.0 mg/kg/injection, schedule: Q01DX005 (ip), vehicle: saline with Tween-80 94 % of control | dose: 6.0 mg/kg/injection, schedule: Q01DX005 (ip), vehicle: saline with Tween-80 94 % of control | dose: 6.25 mg/kg/injection, schedule: Q01DX005 (ip), vehicle: saline with Tween-80 91 % of control | [1] 100 % of control

O=C1C(N=Nc2ccc(Cl)cc2)Sc2nc3ccccc3n21 (stereo unspecified)
inactive: [2] 92 % of control | [3] 90 % of control

CN1CCN(CCCN(c2cccc(C(F)(F)F)c2)c2cccc(C(F)(F)F)c2)CC1
inactive: dose: 50.0 mg/kg/injection, schedule: Q01DX001 (ip), vehicle: Klucel (hydroxypropylcellulose) (HPC) 100 % of control | dose: 100.0 mg/kg/injection, schedule: Q01DX001 (ip), vehicle: Klucel (hydroxypropylcellulose) (HPC) 98 % of control | dose: 200.0 mg/kg/injection, schedule: Q01DX001 (ip), vehicle: Klucel (hydroxypropylcellulose) (HPC) 92 % of control

CC(O)CCOCCCBr (stereo unspecified)
inactive: dose: 50.0 mg/kg/injection, schedule: Q01DX005 (ip), vehicle: saline 100 % of control | dose: 100.0 mg/kg/injection, schedule: Q01DX005 (ip), vehicle: saline 102 % of control | dose: 200.0 mg/kg/injection, schedule: Q01DX005 (ip), vehicle: saline 102 % of control

O=C1CN(c2cccc(Cl)c2)C(=O)CN1/N=C/c1ccccn1
inactive: dose: 50.0 mg/kg/injection, schedule: Q01DX005 (ip), vehicle: saline with Tween-80 100 % of control | dose: 100.0 mg/kg/injection, schedule: Q01DX005 (ip), vehicle: saline with Tween-80 106 % of control | [1] 100 % of control

O=[N+]([O-])c1ccc(S(=O)/N=C/c2ccccc2)c([N+](=O)[O-])c1 (stereo unspecified)
inactive: dose: 12.5 mg/kg/injection, schedule: Q01DX009 (ip), vehicle: Klucel (hydroxypropylcellulose) (HPC) 119 % of control | dose: 25.0 mg/kg/injection, schedule: Q01DX009 (ip), vehicle: Klucel (hydroxypropylcellulose) (HPC) 118 % of control

FC1(F)SC(F)(F)S1
inactive: [4] 108 % of control | [5] 108 % of control | [6] 108 % of control

CNC(=O)OCc1nn(-c2ccc(Cl)cc2)c(C)c1COC(=O)NC
inactive: dose: 1.56 mg/kg/injection, schedule: Q01DX009 (ip), vehicle: distilled water + Tween-80 103 % of control | dose: 3.12 mg/kg/injection, schedule: Q01DX009 (ip), vehicle: distilled water + Tween-80 100 % of control | dose: 6.25 mg/kg/injection, schedule: Q01DX009 (ip), vehicle: distilled water + Tween-80 97 % of control | dose: 12.5 mg/kg/injection, schedule: Q01DX009 (ip), vehicle: distilled water + Tween-80 101 % of control and 89 % of control and 95 % of control | dose: 25.0 mg/kg/injection, schedule: Q01DX009 (ip), vehicle: distilled water + Tween-80 93 % of control | dose: 100.0 mg/kg/injection, schedule: Q01DX009 (ip), vehicle: distilled water + Tween-80 101 % of control and 93 % of control | dose: 200.0 mg/kg/injection, schedule: Q01DX009 (ip), vehicle: distilled water + Tween-80 102 % of control and 108 % of control

CCN(CC)CCNc1cc2c(c3c(=O)c4ccccc4sc13)CCCC2
inactive: dose: 7.8 mg/kg/injection, schedule: Q01DX005 (ip), vehicle: other 101 % of control | dose: 15.6 mg/kg/injection, schedule: Q01DX005 (ip), vehicle: other 113 % of control | dose: 31.3 mg/kg/injection, schedule: Q01DX005 (ip), vehicle: other 104 % of control | dose: 62.5 mg/kg/injection, schedule: Q01DX005 (ip), vehicle: other 113 % of control | dose: 125.0 mg/kg/injection, schedule: Q01DX005 (ip), vehicle: other 101 % of control

NNC(=O)c1ccc(Cl)cc1
inactive: dose: 25.0 mg/kg/injection, schedule: Q01DX009 (ip), vehicle: saline with Tween-80 91 % of control | dose: 50.0 mg/kg/injection, schedule: Q01DX009 (ip), vehicle: saline with Tween-80 96 % of control | dose: 100.0 mg/kg/injection, schedule: Q01DX009 (ip), vehicle: saline with Tween-80 96 % of control | dose: 200.0 mg/kg/injection, schedule: Q01DX009 (ip), vehicle: saline with Tween-80 86 % of control

CCCCCCCCCc1cc(=O)[nH]c(=S)[nH]1
inactive: dose: 15.0 mg/kg/injection, schedule: Q01DX005 (ip), vehicle: Klucel (hydroxypropylcellulose) (HPC) 99 % of control | dose: 30.0 mg/kg/injection, schedule: Q01DX005 (ip), vehicle: Klucel (hydroxypropylcellulose) (HPC) 102 % of control | [2] 90 % of control and 93 % of control | [3] 100 % of control

C[N+](C)(C)CCOS(C)(=O)=O
inactive: dose: 1.56 mg/kg/injection, schedule: Q01DX009 (ip), vehicle: Klucel (hydroxypropylcellulose) (HPC) 90 % of control and 93 % of control | dose: 1.56 mg/kg/injection, schedule: Q01DX009 (ip), vehicle: saline 101 % of control | dose: 3.13 mg/kg/injection, schedule: Q01DX009 (ip), vehicle: Klucel (hydroxypropylcellulose) (HPC) 99 % of control | dose: 3.13 mg/kg/injection, schedule: Q01DX009 (ip), vehicle: saline 111 % of control and 95 % of control | dose: 6.25 mg/kg/injection, schedule: Q01DX009 (ip), vehicle: Klucel (hydroxypropylcellulose) (HPC) 89 % of control (2×) and 94 % of control | dose: 6.25 mg/kg/injection, schedule: Q01DX009 (ip), vehicle: saline 90 % of control | dose: 12.5 mg/kg/injection, schedule: Q01DX009 (ip), vehicle: saline 92 % of control

COc1cc2c(cc1OC)C(=O)c1ncccc1C2=O
inactive: dose: 12.5 mg/kg/injection, schedule: Q01DX009 (ip), vehicle: other 104 % of control | dose: 25.0 mg/kg/injection, schedule: Q01DX009 (ip), vehicle: other 100 % of control | dose: 50.0 mg/kg/injection, schedule: Q01DX009 (ip), vehicle: other 99 % of control | dose: 100.0 mg/kg/injection, schedule: Q01DX009 (ip), vehicle: other 90 % of control | dose: 200.0 mg/kg/injection, schedule: Q01DX009 (ip), vehicle: other 89 % of control

C[C@@H]1C(=O)OCC2=C3C[C@@H](CC[C@@]3(C)C=CC2=O)[C@H](C)C(=O)OCC2=C3C[C@H]1CC[C@@]3(C)C=CC2=O
inactive: [4] 100 % of control | [5] 101 % of control | [6] 95 % of control
